Measured values from the Kinase Knowledgebase extract (Sharma et al. 2016).

Molecular target: PIK3CA (UniProt P42336)
Experiment: PI3K Inhibition

Chain of PIK3CA (P42336 whole entry, looked up): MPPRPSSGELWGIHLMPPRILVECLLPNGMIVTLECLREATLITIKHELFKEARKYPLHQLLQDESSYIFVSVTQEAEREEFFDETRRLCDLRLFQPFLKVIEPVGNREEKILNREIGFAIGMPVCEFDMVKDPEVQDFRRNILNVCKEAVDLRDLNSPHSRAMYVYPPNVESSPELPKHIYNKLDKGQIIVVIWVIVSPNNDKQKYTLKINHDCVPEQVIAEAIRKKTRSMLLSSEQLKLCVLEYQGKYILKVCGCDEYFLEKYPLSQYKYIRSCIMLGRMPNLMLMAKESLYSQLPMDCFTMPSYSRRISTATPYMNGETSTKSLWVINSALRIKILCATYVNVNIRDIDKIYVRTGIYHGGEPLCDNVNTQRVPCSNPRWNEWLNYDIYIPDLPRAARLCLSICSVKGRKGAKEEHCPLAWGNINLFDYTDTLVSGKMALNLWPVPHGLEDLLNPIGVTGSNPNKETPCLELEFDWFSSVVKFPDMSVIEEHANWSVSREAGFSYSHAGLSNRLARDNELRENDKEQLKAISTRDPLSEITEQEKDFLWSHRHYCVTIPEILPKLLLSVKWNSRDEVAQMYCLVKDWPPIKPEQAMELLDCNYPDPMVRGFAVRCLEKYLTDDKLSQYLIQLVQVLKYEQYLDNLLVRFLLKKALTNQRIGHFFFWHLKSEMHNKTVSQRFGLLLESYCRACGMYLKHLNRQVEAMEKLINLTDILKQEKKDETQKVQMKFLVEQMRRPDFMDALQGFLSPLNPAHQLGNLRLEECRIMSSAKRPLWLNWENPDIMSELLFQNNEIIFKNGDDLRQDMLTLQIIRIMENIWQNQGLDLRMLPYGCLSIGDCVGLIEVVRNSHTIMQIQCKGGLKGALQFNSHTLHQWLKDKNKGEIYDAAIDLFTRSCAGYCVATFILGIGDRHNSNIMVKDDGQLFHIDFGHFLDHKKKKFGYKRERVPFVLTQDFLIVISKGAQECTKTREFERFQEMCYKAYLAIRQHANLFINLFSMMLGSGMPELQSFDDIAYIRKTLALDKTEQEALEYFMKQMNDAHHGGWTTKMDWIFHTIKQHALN

Structure (SMILES) | IC50
CO[C@H]1C[C@@H](C)CC2=C(NCCCCCOc3ccc4c(=O)cc(N5CCOCC5)oc4c3)C(=O)C=C(NC(=O)C(C)=CC=C[C@@H](OC)[C@H](OC(N)=O)C(C)=C[C@H](C)[C@H]1O)C2=O | 310 µM
CO[C@H]1C[C@@H](C)CC2=C(NCCCCOc3ccc4c(=O)cc(N5CCOCC5)oc4c3)C(=O)C=C(NC(=O)C(C)=CC=C[C@@H](OC)[C@H](OC(N)=O)C(C)=C[C@H](C)[C@H]1O)C2=O | 200 µM
CO[C@H]1C[C@@H](C)CC2=C(NCCCOc3ccc4c(=O)cc(N5CCOCC5)oc4c3)C(=O)C=C(NC(=O)C(C)=CC=C[C@@H](OC)[C@H](OC(N)=O)C(C)=C[C@H](C)[C@H]1O)C2=O | > 500 µM
C=CCNC1=C2C[C@@H](C)C[C@H](OC)[C@H](O)[C@@H](C)C=C(C)[C@H](OC(N)=O)[C@@H](OC)C=CC=C(C)C(=O)NC(=CC1=O)C2=O | > 500 µM
CO[C@H]1C[C@@H](C)CC2=C(NCCCCCCOc3ccc4c(=O)cc(N5CCOCC5)oc4c3)C(=O)C=C(NC(=O)C(C)=CC=C[C@@H](OC)[C@H](OC(N)=O)C(C)=C[C@H](C)[C@H]1O)C2=O | > 500 µM

Now those with a lower IC50, led by results:

IC50 | Structure (SMILES)
85 µM | CO[C@H]1C[C@@H](C)CC2=C(NCCOCCOc3ccc4c(=O)cc(N5CCOCC5)oc4c3)C(=O)C=C(NC(=O)C(C)=CC=C[C@@H](OC)[C@H](OC(N)=O)C(C)=C[C@H](C)[C@H]1O)C2=O
70 µM | CO[C@H]1C[C@@H](C)CC2=C(NCCOCCOc3ccc4c(=O)cc(N5CCOCC5)oc4c3C)C(=O)C=C(NC(=O)C(C)=CC=C[C@@H](OC)[C@H](OC(N)=O)C(C)=C[C@H](C)[C@H]1O)C2=O
28 µM | CO[C@H]1C[C@@H](C)CC2=C(NCCCCCCCCOc3ccc4c(=O)cc(N5CCOCC5)oc4c3C)C(=O)C=C(NC(=O)C(C)=CC=C[C@@H](OC)[C@H](OC(N)=O)C(C)=C[C@H](C)[C@H]1O)C2=O
13.5 µM | CO[C@H]1C[C@@H](C)CC2=C(NCCCC#Cc3cccc4c(=O)cc(N5CCOCC5)oc34)C(=O)C=C(NC(=O)C(C)=CC=C[C@@H](OC)[C@H](OC(N)=O)C(C)=C[C@H](C)[C@H]1O)C2=O
5 µM | CO[C@H]1C[C@@H](C)CC2=C(NCCCCCCCOc3ccc4c(=O)cc(N5CCOCC5)oc4c3C)C(=O)C=C(NC(=O)C(C)=CC=C[C@@H](OC)[C@H](OC(N)=O)C(C)=C[C@H](C)[C@H]1O)C2=O
3 µM | CO[C@H]1C[C@@H](C)CC2=C(NCC#Cc3cccc4c(=O)cc(N5CCOCC5)oc34)C(=O)C=C(NC(=O)C(C)=CC=C[C@@H](OC)[C@H](OC(N)=O)C(C)=C[C@H](C)[C@H]1O)C2=O
